pIC50: −log10 of the molar value.
Biological target: T1, human TRPV4 (hTRPV4/CHO cells) (Homo sapiens, UniProt Q9HBA0)
T1 construct: expressed in transfected cells; host or cells: CHO-K1
Test: Test Example 1: TRPV4 inhibitory activity (IC50 value), 4α-PDD stimulation, Fluo4 calcium fluorescence (FLIPR TETRA)
Type: cell-based
Conditions: 1 μmol/L 4α-PDD, Fluo4-AM, read-out: TRPV4 inhibitory activity (IC50 value)

T1 sequence (Q9HBA0 whole entry): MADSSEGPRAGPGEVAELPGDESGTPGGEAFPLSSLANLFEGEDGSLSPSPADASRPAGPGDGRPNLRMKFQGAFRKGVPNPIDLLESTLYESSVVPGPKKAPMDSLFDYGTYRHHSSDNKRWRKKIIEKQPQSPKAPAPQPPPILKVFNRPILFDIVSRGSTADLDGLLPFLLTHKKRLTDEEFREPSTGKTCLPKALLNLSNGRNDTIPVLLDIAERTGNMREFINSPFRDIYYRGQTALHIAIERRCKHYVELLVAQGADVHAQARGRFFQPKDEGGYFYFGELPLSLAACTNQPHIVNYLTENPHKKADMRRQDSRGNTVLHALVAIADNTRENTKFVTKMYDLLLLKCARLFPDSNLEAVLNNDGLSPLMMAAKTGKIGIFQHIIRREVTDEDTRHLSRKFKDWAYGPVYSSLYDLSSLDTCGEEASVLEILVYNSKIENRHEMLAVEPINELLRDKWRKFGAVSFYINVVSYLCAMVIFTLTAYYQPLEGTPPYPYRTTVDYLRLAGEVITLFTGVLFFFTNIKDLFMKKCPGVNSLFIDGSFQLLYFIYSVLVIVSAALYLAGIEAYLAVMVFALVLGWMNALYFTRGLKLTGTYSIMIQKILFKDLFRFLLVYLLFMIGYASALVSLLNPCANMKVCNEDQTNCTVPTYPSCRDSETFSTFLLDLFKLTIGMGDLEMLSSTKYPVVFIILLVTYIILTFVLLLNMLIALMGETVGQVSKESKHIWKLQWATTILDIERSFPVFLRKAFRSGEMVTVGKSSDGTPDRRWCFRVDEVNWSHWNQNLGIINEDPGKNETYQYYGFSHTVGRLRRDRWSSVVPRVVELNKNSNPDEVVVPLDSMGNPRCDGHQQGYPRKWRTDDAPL

pIC50	SMILES
7.52	Cc1nc(C)c(-c2csc(NC(=O)Cc3ccc(S(=O)(=O)N4CCCCC4)cc3)n2)s1 [Compound I-156]

Same assay, conditions: Test Example 1, 4α-PDD stimulation, read-out: Test 1 IC50

pIC50	SMILES
6.00 to 7.00	O=C(Nc1nc(-c2sc(CO)nc2CO)cs1)C1CN(c2ccc(C(F)(F)F)cn2)C1 [Compound I-303]
> 7.00	Cc1nc(C)c(-c2csc(NC(=O)[C@H]3C[C@H](Cl)C3)n2)s1 [Compound I-326]
> 7.00	CNC(=O)NCc1nc(CO)sc1-c1csc(NC(=O)Cc2ccc(S(=O)(=O)C(F)(F)F)cc2)n1 [Compound I-389]
6.00 to 7.00	Cc1nc(C)c(-c2csc(NC(=O)C3(CCCO)CN(c4ccc(C(F)(F)F)cc4)C3)n2)s1 (racemic) [Compound I-529]
> 7.00	Cc1nc(C)c(-c2csc(NC(=O)Cn3cc(C4CCCCC4)nn3)n2)s1 [Compound I-190]
6.00 to 7.00	Cc1nc(CO)sc1-c1csc(NC(=O)[C@@H]2C[C@@H](c3ccccc3)CN2C(=O)C(C)C)n1 [Compound I-312]
6.00 to 7.00	Cc1nc(C)c(-c2csc(NC(=O)Cn3cc(CNc4ccccc4)nn3)n2)s1 [Compound I-425]
6.00 to 7.00	Cc1nc(C)c(-c2csc(NC(=O)[C@H](Cc3ccccc3)NC(=O)OC(C)(C)C)n2)s1 [Compound I-265]
6.00 to 7.00	Cc1ccc(-c2csc(NC(=O)Cc3ccc(S(=O)(=O)CC(F)(F)F)cc3)n2)s1 [II-8]
6.00 to 7.00	CN(Cc1nc(CO)sc1-c1csc(NC(=O)Cc2ccc(S(=O)(=O)C(F)(F)F)cc2)n1)C(N)=O [Compound I-391]
> 7.00	Cc1nc(C)c(-c2csc(NC(=O)C3CN(c4ccc(C(F)(F)F)cn4)C3)n2)s1 [Compound I-259]
> 7.00	Cc1nc(C)c(-c2csc(NC(=O)Cc3ccc(S(=O)(=O)N4CCCCC4)cc3)n2)s1 [Compound I-156]
6.00 to 7.00	NC(=O)c1nc(CO)c(-c2csc(NC(=O)C3CN(Cc4ccccc4C(F)(F)F)C3)n2)s1 [Compound I-322]
> 7.00	Cc1nc(C)c(-c2csc(NC(=O)[C@@H]3C[C@H](Oc4ccc(Cl)cc4)CN3C(=O)OC(C)(C)C)n2)s1 [Compound I-293]
6.00 to 7.00	Cc1nc(CO)sc1-c1csc(NC(=O)[C@H]2C[C@@H](NCc3ccc(C(F)(F)F)cc3)C2)n1 [Compound I-319]
> 7.00	COCC1(C(=O)Nc2nc(-c3sc(C)nc3C)cs2)CN(c2ccc(C(F)(F)F)cc2)C1 (racemic) [Compound I-531]
6.00 to 7.00	Cc1nc(C)c(-c2csc(Nc3cccnc3)n2)s1 [II-40]
> 7.00	Cc1nc(CO)sc1-c1csc(NC(=O)[C@H]2C[C@H](F)C2)n1 [Compound I-202]
> 7.00	Cc1nc(CO)sc1-c1csc(NC(=O)[C@@H]2C[C@@H](c3ccccc3)CN2C(=O)OC(C)C)n1 [Compound I-315]
5.10 to 6.00	Cc1nc(C)c(-c2nc(NC(=O)Cc3c(F)cccc3F)sc2C(=O)Nc2ccccc2)s1 [Compound I-75]
6.00 to 7.00	Cc1nc(CO)sc1-c1csc(NC(=O)[C@H]2C[C@@H](N(C)CC(F)(F)F)C2)n1 [Compound I-304]
5.10 to 6.00	Cc1nc(C(=O)NCCO)sc1-c1csc(NC(=O)Cc2c(F)cccc2F)n1 [Compound I-125]
5.10 to 6.00	Cc1nc(C)c(-c2csc(NC(=O)[C@@H]3C[C@@H](c4ccccc4)CN3C=[N+](C)C)n2)s1 [Compound I-294]

pIC50	SMILES
> 7.00	COC(=O)c1cccc(CC(=O)Nc2nc(-c3sc(C)nc3C)cs2)c1 [Compound I-488]
6.00 to 7.00	Cc1nc(C)c(-c2csc(NC(=O)Cn3cc(-c4ccc(N(C)C)cc4)nn3)n2)s1 [Compound I-427]
> 7.00	COc1cc(CC(=O)Nc2nc(-c3sc(C)nc3C)cs2)cc(C(=O)NC(C(C)C)C(F)(F)F)c1 (racemic) [Compound I-527]
6.00 to 7.00	Cc1nc(CO)sc1-c1csc(NC(=O)C2CCN(CC(F)(F)F)C2)n1 (centres unmarked) [Compound I-213]
> 7.00	Cc1nc(CO)sc1-c1csc(NC(=O)[C@@H]2C[C@@H](c3ccccc3)CN2S(=O)(=O)C(C)C)n1 [Compound I-316]
6.00 to 7.00	O=C(Cc1ccc(S(=O)(=O)CC(F)(F)F)cc1)Nc1nc(-c2cccs2)cs1 [II-6]
> 7.00	Cc1nc(C)c(-c2csc(NC(=O)C3CN(c4ccc(C(F)(F)F)nc4)C3)n2)s1 [Compound I-286]
> 7.00	Cc1nc(C)c(-c2csc(NC(=O)Cc3cccc(NC(=O)C4CCCCC4)c3)n2)s1 [Compound I-416]
6.00 to 7.00	CC(C)OC(=O)N1C[C@H](c2ccccc2)C[C@H]1C(=O)Nc1nc(-c2sc(CO)nc2CO)cs1 [Compound I-344]
5.10 to 6.00	Cc1nc(CO)sc1-c1csc(NC(=O)C2CC(OCC3CC3)C2)n1 (centres unmarked) [Compound I-333]
5.10 to 6.00	COc1ccc(CN2CC(C(=O)Nc3nc(-c4sc(C)nc4C)cs3)C2)cn1 [Compound I-283]
5.10 to 6.00	Cc1nc(C)c(-c2nc(NC(=O)Cc3c(F)cccc3F)sc2-c2cccc(N(C)C)c2)s1 [Compound I-68]
6.00 to 7.00	Cc1nc(C)c(-c2csc(NC(=O)C3CN(Cc4ccc(C(F)(F)F)nc4)C3)n2)s1 [Compound I-282]
5.10 to 6.00	CCNC(=O)N1C[C@H](c2ccccc2)C[C@H]1C(=O)Nc1nc(-c2sc(C)nc2C)cs1 [Compound I-300]
6.00 to 7.00	NC(=O)Cc1nc(CO)sc1-c1csc(NC(=O)Cc2ccc(S(=O)(=O)C(F)(F)F)cc2)n1 [Compound I-358]
6.00 to 7.00	Cc1nc(CO)sc1-c1csc(NC(=O)C2CC2(F)F)n1 (centres unmarked) [Compound I-173]
> 7.00	Cc1nc(CO)sc1-c1csc(NC(=O)Cc2ccc(S(=O)(=O)C(F)(F)F)cc2)n1 [Compound I-142]
> 7.00	Cc1nc(C)c(-c2csc(NC(=O)C3CN(S(=O)(=O)c4ccc(Cl)cc4Cl)C3)n2)s1 [Compound I-503]
> 7.00	Cc1nc(C)c(-c2csc(NC(=O)C3CN(c4ccc(C(F)(F)F)cc4)C3)n2)s1 [Compound I-497]
> 7.00	CC(C)c1ccc(N2CC(C(=O)Nc3nc(-c4sc(CO)nc4CO)cs3)C2)cc1 [Compound I-341]
5.10 to 6.00	Cc1nc(C)c(-c2nc(NC(=O)Cc3c(F)cccc3F)sc2C(=O)Nc2ccc(C#N)cc2)s1 [Compound I-84]
6.00 to 7.00	Cc1nc(C)c(-c2csc(NC(=O)CN3CCC(c4ccccc4)C3)n2)s1 (centres unmarked) [Compound I-155]

The next lines start with the molecule.

SMILES	pIC50
Cc1nc(C)c(-c2csc(NC(=O)Cn3cc(Br)cn3)n2)s1 [Compound I-132]	> 7.00
Cc1nc(C)c(-c2csc(NC(=O)C3Cc4c([N+](=O)[O-])cc(Cl)c(Cl)c4O3)n2)s1 (centres unmarked) [Compound I-201]	> 7.00
Cc1nc(CO)sc1-c1csc(NC(=O)[C@H]2C[C@@H](C(F)F)C2)n1 [Compound I-355]	6.00 to 7.00
Cc1nc(CO)sc1-c1csc(NC(=O)CC2CCN(S(=O)(=O)C(F)(F)F)CC2)n1 [Compound I-453]	6.00 to 7.00
Cc1nc(C#N)sc1-c1csc(NC(=O)Cc2ccc(S(=O)(=O)C(F)(F)F)cc2)n1 [Compound I-402]	6.00 to 7.00
O=C(Nc1nc(-c2sc(CO)nc2CO)cs1)C1CN(c2ccccc2)C1 [Compound I-371]	6.00 to 7.00
COc1nc(C)c(-c2csc(NC(=O)Cc3ccc(S(=O)(=O)C(F)(F)F)cc3)n2)s1 [Compound I-444]	> 7.00
Cc1nc(C)c(-c2csc(NC(=O)Cc3cccc(N)c3)n2)s1 [Compound I-409]	6.00 to 7.00
Cc1nc(CO)sc1-c1csc(NC(=O)[C@H]2C[C@@H](OCc3ccccc3C(F)(F)F)C2)n1 [Compound I-346]	> 7.00
Cc1nc(C)c(-c2csc(NC(=O)Cc3ccc(S(=O)(=O)N(C)c4ccccc4)cc3)n2)s1 [Compound I-159]	> 7.00
Cc1nc(C)c(-c2csc(NC(Cc3ccc(Cl)cc3)C(=O)NC3CCOCC3)n2)s1 (racemic) [II-46]	5.10 to 6.00
CCNCc1nc(C)sc1-c1csc(NC(=O)Cc2c(F)cccc2F)n1 [Compound I-198]	6.00 to 7.00
O=C(Nc1nc(-c2sc(CO)nc2CO)cs1)C1CC(c2ccccc2)C1 (centres unmarked) [Compound I-546]	6.00 to 7.00
CC(=O)N(C)Cc1nc(CO)sc1-c1csc(NC(=O)Cc2ccc(S(=O)(=O)C(F)(F)F)cc2)n1 [Compound I-393]	6.00 to 7.00
Cc1nc(CO)sc1-c1csc(NC(=O)C2CN(c3cccnc3C(F)(F)F)C2)n1 [Compound I-310]	> 7.00
Cc1nc(CNC(N)=O)sc1-c1csc(NC(=O)Cc2ccc(S(=O)(=O)C(F)(F)F)cc2)n1 [Compound I-398]	5.10 to 6.00

SMILES	pIC50
Cc1nc(C)c(-c2nc(NC(=O)Cc3c(F)cccc3F)sc2-c2cccc(O)c2)s1 [Compound I-70]	5.10 to 6.00
N#CCc1nc(CO)sc1-c1csc(NC(=O)Cc2ccc(S(=O)(=O)C(F)(F)F)cc2)n1 [Compound I-359]	> 7.00
Cc1nc(C)c(-c2csc(NC(=O)[C@@H]3C[C@@H](c4ccccc4)CN3C(=O)C(C)C)n2)s1 [Compound I-291]	6.00 to 7.00
Cc1nc(C)c(-c2nc(NC(=O)Cc3c(F)cccc3F)sc2-c2ccncc2)s1 [Compound I-60]	5.10 to 6.00
Cc1nc(C)c(-c2csc(NC(=O)C3CN(Cc4ccc(C(F)(F)F)cc4)C3)n2)s1 [Compound I-258]	> 7.00
O=C(Nc1nc(-c2sc(CO)nc2CO)cs1)C1CC(Oc2ccc(C(F)(F)F)cc2)C1 (centres unmarked) [Compound I-330]	> 7.00
Cc1nc(CO)sc1-c1csc(Nc2ccccn2)n1 [II-32]	> 7.00
Cc1nc(C)c(-c2csc(NC(=O)Cc3cccc(S(=O)(=O)N[C@H](c4ccccc4)C(F)(F)F)c3)n2)s1 [Compound I-499]	> 7.00
Cc1nc(C)c(-c2csc(NC(=O)C3CC4(C3)CC(F)(F)C4)n2)s1 [Compound I-470]	> 7.00
CO[C@H]1C[C@@H](C(=O)Nc2nc(-c3sc(C)nc3C)cs2)C1 [Compound I-269]	5.10 to 6.00
Cc1nc(C)c(-c2csc(NC(=O)C3CN(Cc4cccc(C(F)(F)F)c4)C3)n2)s1 [Compound I-262]	> 7.00
Cc1nc(C)c(-c2csc(NC(=O)CCC(=O)N[C@H](c3ccccc3)C(F)(F)F)n2)s1 [Compound I-494]	6.00 to 7.00
Cc1nc(C)c(-c2csc(NC(=O)C3Cc4ccccc4C3)n2)s1 [Compound I-88]	5.10 to 6.00
Cc1nc(COC(N)=O)sc1-c1csc(NC(=O)Cc2ccc(S(=O)(=O)C(F)(F)F)cc2)n1 [Compound I-378]	6.00 to 7.00
Cc1nc(CO)sc1-c1csc(NC(=O)C2CC(OCc3ccncc3)C2)n1 (centres unmarked) [Compound I-240]	5.10 to 6.00

Reference: patent US20170066759A1, “AROMATIC 5-MEMBERED HETEROCYCLIC DERIVATIVE HAVING TRPV4-INHIBITING ACTIVITY” (Shionogi & Co., Ltd., priority 2012, published 2017)
